From ChEMBL document CHEMBL4483862, “Open-source discovery of chemical leads for next-generation chemoprotective antimalarials” (2018) come the findings set out here.

For this test, the system named is Plasmodium berghei. In words: Luciferase/luciferin-expressing antifolate-resistant parasites were used to infect a culture of HepG2 cells that were pre-incubated with compounds. Infected hepatocytes emit light due to the luciferase reaction. Assay results are presented as the percent inhibition of light emission compared to control. […]. In kind it is functional. To be noted: sporozoite; for IC90: read-out: LUCIFERASE INFECTION ASSAY - IC90.

Where [1] appears, read: read-out: LUCIFERASE INFECTION ASSAY - IC50.

Bounds are passed on as bounds.

Broadly, the IC50 is the concentration that inhibits the measured activity by half. A word on the IC90: it is the concentration needed for an effect of 90%. As for `Clc1ccc(CSCc2cc(SCc3ccc(Cl)cc3Cl)nc(-c3ccccn3)n2)cc1`, the IC90 stood at 0.781 µM. For the setting “HEPG2TOX_HILL_SLOPE 1.3, HEPG2TOX_R_SQUARED 0.951, PBLUC_HILL_SLOPE 11.6, PBLUC_R_SQUARED 0.668, read-out: LUCIFERASE INFECTION ASSAY - IC50”, the IC50 was 0.646 µM.
For the molecule `CN(C)CCCNc1nc2sc3c(c2c(=O)n1-c1ccccc1)CCCCC3`, the IC90 is above 8.32 µM. Also, the IC50 under setting [1] was above 8.32 µM.
Regarding `O=C(COc1ccccc1C(=O)Nc1nc(-c2ccccc2)cs1)Nc1cccc(C(F)(F)F)c1`, the IC90 is 5.93 µM. Under “HEPG2TOX_HILL_SLOPE 11.2, HEPG2TOX_R_SQUARED 0.982, PBLUC_HILL_SLOPE 4.71, PBLUC_R_SQUARED 0.747, read-out: LUCIFERASE INFECTION ASSAY - IC50”, the IC50 is 3.72 µM.
For the molecule `COc1ccccc1N(C(=O)c1cccc(C#N)c1)c1nc2ccccc2s1`, the IC90 is above 10 µM. In addition, under setting [1], the IC50 was above 10 µM.
In the case of `O=c1[nH][nH]c(-c2ccccc2)c1C=NCc1cccc(C(F)(F)F)c1`, the IC90 was above 9.56 µM. Besides, the IC50 (HEPG2TOX_HILL_SLOPE 6.09, HEPG2TOX_R_SQUARED 0.916, PBLUC_HILL_SLOPE 3.54, PBLUC_R_SQUARED 0.303, read-out: LUCIFERASE INFECTION ASSAY - IC50) came to 7.61 µM.
Turning to `Fc1ccc2[nH]cc(CCNc3nc(Cl)nc4nc[nH]c34)c2c1`, the 90% effect concentration (IC90) was found to be 4.27 µM. In addition, the IC50 (HEPG2TOX_HILL_SLOPE 2.14, HEPG2TOX_R_SQUARED 0.948, PBLUC_HILL_SLOPE 1.79, PBLUC_R_SQUARED 0.853, read-out: LUCIFERASE INFECTION ASSAY - IC50) turned out to be 1.25 µM.
For the molecule `CCOc1ccc(CN(C)c2ncnc3sc(C)c(C)c23)cc1OC`, the IC90 came out at 3.65 µM. For the same molecule, the IC50 (HEPG2TOX_HILL_SLOPE 1.19, HEPG2TOX_R_SQUARED 0.971, PBLUC_HILL_SLOPE 15.4, PBLUC_R_SQUARED 0.0404, read-out: LUCIFERASE INFECTION ASSAY - IC50) was found to be 3.16 µM.
For `Cc1ccc(S(=O)(=O)NC(=O)c2c(C(=O)NS(=O)(=O)c3ccc(C)cc3)c(C)n(-c3ccc(N(C)C)cc3)c2C)cc1`, the IC90 is above 10 µM. Moreover, the IC50 under setting [1] is above 10 µM.
In the case of `Cc1c(C)c(C)c(S(=O)(=O)Oc2ccccc2N2CC(C)OC(C)C2)c(C)c1C` (stereo unspecified), the IC90 is above 7.9 µM. Further, where the note is “PBLUC_HILL_SLOPE 5.73, PBLUC_R_SQUARED 0.021, read-out: LUCIFERASE INFECTION ASSAY - IC50”, the IC50 is above 7.9 µM.
Take `CC(C)NC(=O)N1CCCC(C(=O)Nc2nc3ccccc3[nH]2)C1` (stereo unspecified): the IC90 was 4 µM. Also, for the setting “FFLUC_HILL_SLOPE 4.02, FFLUC_R_SQUARED 0.256, PBLUC_HILL_SLOPE 1.51, PBLUC_R_SQUARED 0.42, read-out: LUCIFERASE INFECTION ASSAY - IC50”, the IC50 came out at 0.935 µM.
Consider `Cc1cc(C)n(-c2nc(NCc3ccco3)cc(-c3ccccc3)n2)n1`, for which the IC90 is above 9.55 µM. The IC50 (PBLUC_HILL_SLOPE 3.01, PBLUC_R_SQUARED 0.273, read-out: LUCIFERASE INFECTION ASSAY - IC50) was determined as 5.14 µM.
As to `O=C(Nc1ccccc1C(=O)OCCC(F)(F)F)c1ccccc1`, the IC90 is above 10 µM. Besides, under setting [1], the IC50 was above 10 µM.
With `COc1cc(/C=C/C(=O)OC(C(=O)c2c[nH]c3ccccc23)c2ccccc2)cc(OC)c1OC` (stereo unspecified), the IC90 is above 10 µM. For the same molecule, under setting [1], the IC50 is above 10 µM.
As for `COc1cc(NC(=O)N2CCc3nc(Nc4cc(C)cc(C)c4)ncc3C2)cc(OC)c1OC`, the IC90 is above 7.12 µM. Besides, where the note is “PBLUC_HILL_SLOPE 3.8, PBLUC_R_SQUARED 0.0984, read-out: LUCIFERASE INFECTION ASSAY - IC50”, the IC50 was 4.59 µM.
For the molecule `O=C1C=C/C(=N\Nc2ccc(F)cc2)c2cccnc21`, the IC90 is above 10 µM. Further, the IC50 (HEPG2TOX_HILL_SLOPE 7.02, HEPG2TOX_R_SQUARED 0.243, read-out: LUCIFERASE INFECTION ASSAY - IC50) was above 10 µM.
For the molecule `CC(C)c1ccc(/C=C2\CCc3c2nc2ccccc2c3C(=O)O)cc1`, the IC90 is 0.0263 µM. Besides, for the setting “PBLUC_HILL_SLOPE 81.7, PBLUC_R_SQUARED 0.0337, read-out: LUCIFERASE INFECTION ASSAY - IC50”, the IC50 is 0.0256 µM.
For `CC(=O)c1cccc(-c2cnc3ccc(Cc4ccccc4)nn23)c1`, the IC90 was found to be 8.78 µM. Moreover, the IC50 (HEPG2TOX_HILL_SLOPE 1.13, HEPG2TOX_R_SQUARED 0.363, PBLUC_HILL_SLOPE 4.01, PBLUC_R_SQUARED 0.469, read-out: LUCIFERASE INFECTION ASSAY - IC50) is 5.08 µM.
Regarding `N#Cc1cccc(-c2nnco2)c1`, the IC90 is above 10 µM. The IC50 under setting [1] is above 10 µM.
Turning to `COc1ccccc1N1CCN(c2oc(-c3ccccc3Cl)nc2S(=O)(=O)c2ccc(C)cc2)CC1`, the IC90 was above 10 µM. In addition, for the setting “PBLUC_HILL_SLOPE 1.06, PBLUC_R_SQUARED 0.3, read-out: LUCIFERASE INFECTION ASSAY - IC50”, the IC50 is above 10 µM.
`N#CCS(=O)(=O)c1ccc(OC(F)(F)F)cc1`: the IC90 was above 12.4 µM. Also, the IC50 under setting [1] is above 12.4 µM.
Turning to `COc1cc(/C=C(/C(=O)OCC(=O)NC2CCCCC2C)c2ccc(-c3ccccc3)cc2)cc(OC)c1OC` (stereo unspecified), the IC90 amounted to 3.8 µM. Also, the IC50 (HEPG2TOX_HILL_SLOPE 6.06, HEPG2TOX_R_SQUARED 0.736, PBLUC_HILL_SLOPE 16.1, PBLUC_R_SQUARED 0.664, read-out: LUCIFERASE INFECTION ASSAY - IC50) turned out to be 3.32 µM.
Take `Cc1ccc2c(Cl)cc(Cl)c(OCC(=O)c3c[nH]c(C(=O)N4CCCC4)c3)c2n1`: the IC90 turned out to be 8.53 µM. Besides, the IC50 (HEPG2TOX_HILL_SLOPE 1.13, HEPG2TOX_R_SQUARED 0.949, PBLUC_HILL_SLOPE 1.15, PBLUC_R_SQUARED 0.754, read-out: LUCIFERASE INFECTION ASSAY - IC50) stood at 1.25 µM.
For the molecule `O=C(NC(c1ccccc1)c1ccccc1)[C@H]1C[C@H](O)[C@@H](CO)O1`, the IC90 was above 10.1 µM. Under setting [1], the IC50 is above 10.1 µM.
In the case of `CCOC(=O)c1c(-c2ccc(C)o2)csc1NC(=O)CN(C)CC(=O)Nc1ccc(Cl)c(C(F)(F)F)c1`, the IC90 was above 10 µM. Under setting [1], the IC50 is above 10 µM.
Turning to `CCOc1ccc2c(c1)C(=O)C(=O)N2Cc1ccc(OC)cc1`, the IC90 was above 10.6 µM. Besides, the IC50 (PBLUC_HILL_SLOPE 0.721, PBLUC_R_SQUARED 0.0969, read-out: LUCIFERASE INFECTION ASSAY - IC50) was above 10.6 µM.
Regarding `O=C1c2ccccc2SC1(c1nc2ccccc2s1)c1nc2ccccc2s1`, the IC90 was 9.86 µM. For the same molecule, the IC50 (FFLUC_HILL_SLOPE 17.4, FFLUC_R_SQUARED 0.735, PBLUC_HILL_SLOPE 16.6, PBLUC_R_SQUARED 0.262, read-out: LUCIFERASE INFECTION ASSAY - IC50) worked out at 8.63 µM.
Take `CNCCCNCc1cccc(OC)c1OCc1ccc(Cl)cc1`: the IC90 is above 9.46 µM. Also, where the note is “PBLUC_HILL_SLOPE 9.3, PBLUC_R_SQUARED 0.597, read-out: LUCIFERASE INFECTION ASSAY - IC50”, the IC50 was 8.76 µM.
Consider `CC(C)N1CCCc2cc(CN3CCC4(CC3)C(=O)N(CCCc3ccncc3)C(=O)N4C)ccc21`, for which the IC90 is above 6.74 µM. For the same molecule, under “HEPG2TOX_HILL_SLOPE 0.974, HEPG2TOX_R_SQUARED 0.954, PBLUC_HILL_SLOPE 1.42, PBLUC_R_SQUARED 0.506, read-out: LUCIFERASE INFECTION ASSAY - IC50”, the concentration for half-maximal inhibition (IC50) came to 3.48 µM.
Regarding `O=C(N/N=C1\CCCCc2ccccc21)c1cc2ccccc2cc1O`, the concentration for an effect of 90% (IC90) was above 10 µM. Also, the IC50 (HEPG2TOX_HILL_SLOPE 7.95, HEPG2TOX_R_SQUARED 0.651, read-out: LUCIFERASE INFECTION ASSAY - IC50) was above 10 µM.
`N#CCCNS(=O)(=O)c1ccc(C(=O)Nc2ccc(Nc3ccccc3)cc2)cc1`: the IC90 was determined as 3.71 µM. In addition, the IC50 (HEPG2TOX_HILL_SLOPE 10.9, HEPG2TOX_R_SQUARED 0.158, PBLUC_HILL_SLOPE 11.4, PBLUC_R_SQUARED 0.555, read-out: LUCIFERASE INFECTION ASSAY - IC50) is 3.06 µM.
On to `FC(F)(F)c1nnc2ccc(Oc3ccc(Cl)c4ccccc34)nn12`, for which the IC90 was above 10 µM. The IC50 under setting [1] was above 10 µM.
With `COc1ccc(-c2nnc(SCC(=O)c3cc(F)ccc3OC)[nH]2)cc1`, the IC90 was above 10 µM. Further, the IC50 (HEPG2TOX_HILL_SLOPE 0.475, HEPG2TOX_R_SQUARED 0.679, read-out: LUCIFERASE INFECTION ASSAY - IC50) is above 10 µM.
Regarding `CC(C)N(C(=O)CSc1nnc(-c2cccc(S(=O)(=O)N3CCOCC3)c2)n1-c1ccc(F)cc1)c1ccccc1`, the IC90 is above 10 µM. For the same molecule, the IC50 under setting [1] was above 10 µM.
`NC(=NNC(=S)Nc1ccc(Cl)cc1)c1ccccn1`: the IC90 is above 10.8 µM. Also, under “FFLUC_HILL_SLOPE 4.43, FFLUC_R_SQUARED 0.823, PBLUC_HILL_SLOPE 0.754, PBLUC_R_SQUARED 0.703, read-out: LUCIFERASE INFECTION ASSAY - IC50”, the IC50 was 1.71 µM.
As for `N#Cc1ccc(NC(=O)NNc2ccc(Cl)cc2Cl)cc1`, the IC90 is above 10 µM. Further, the half-inhibitory concentration (IC50) (PBLUC_HILL_SLOPE 16.6, PBLUC_R_SQUARED 0.338, read-out: LUCIFERASE INFECTION ASSAY - IC50) came to 9.59 µM.
For the molecule `CCN(CC)CCn1c(NC(=O)c2cc3c(s2)CCCC3)nc2ccccc21`, the IC90 is above 10 µM. Moreover, the IC50 (PBLUC_HILL_SLOPE 4.87, PBLUC_R_SQUARED 0.309, read-out: LUCIFERASE INFECTION ASSAY - IC50) amounted to 6.91 µM.
Turning to `Cc1ccc(C)c(OCCSc2ccc(C(=O)NC3CC3)cn2)c1`, the IC90 was determined as 3.93 µM. Besides, the IC50 under setting [1] was 3.35 µM.
Consider `Cn1nnnc1Sc1nc(-c2ccccc2)nc2ccccc12`, for which the IC90 came out at 5.09 µM. For the same molecule, the IC50 (HEPG2TOX_HILL_SLOPE 4.8, HEPG2TOX_R_SQUARED 0.994, PBLUC_HILL_SLOPE 8.61, PBLUC_R_SQUARED 0.614, read-out: LUCIFERASE INFECTION ASSAY - IC50) is 3.95 µM.
